From patent US5278181A, “Soluble alkyl[5-[amino (phenyl)methyl]-1H-benzimidazol-2-yl] carbamate anthelmintics” (priority 1992, dated 1994)
≈ marks a conversion by molar mass, not a printed value.

How the values were obtained:
[1] = system: Acanthocheilonema viteae; assay: Antifilarial dual infection screen in jirds: adult A. viteae burden and microfilaremia; type: in vivo, in Mongolian jirds; conditions: for % Macrofilarial reduction, A. viteae: day 56
Text: (§1) Dual infections of the filarial worms Brugia pahangi and Acanthocheilonema viteae in jirds are used routinely for antifilarial screening [McCall, J. W., McTier, T. L., and Rowan, S. J., "In vivo models for evaluating potential antifilarial agents", Onchocerciasis/Filariasis (Proceedings of a Symposium sponsored by the World Health Organization), Kalamazoo, Mich., Apr. 8-10, 23-24 (1986)].
(§2) For this dual infection screen, male Mongolian jirds weighing 50-60 g are infected SC with 10 (5 male and 5 female) adult A. viteae, transplanted under sodium pentobarbital anesthesia (48 mg/kg) from donor hamsters infected SC 8 weeks earlier. Two weeks later, 20 (10 male and 10 female) adult B. pahangi, taken from donor jirds infected IP 8 weeks earlier, are transplanted into the peritoneal cavity of each jird under sodium pentobarbital anesthesia. After an additional week, when the jirds have acceptable levels of microfilaremia, they are randomly allocated to treatment groups of 3 animals each and a nontreated group of 4-6 animals. Microfilaremia is determined on days 0 (just prior to the first dose), 4 and 56 post-treatment. Unless indicated otherwise, compounds are suspended in hydroxyethylcellulose (0.5%) - Tween 80 (0.1%) and administered SC at 100 mg/kg/day for 5 consecutive days. All jirds are killed on day 56 post-treatment to determine the effects of drugs on adults of A. viteae and B. pahangi. Live worms are identified as to species, noted as to sex, and counted. The number of dead and/or encapsulated worms is also recorded. A reduction of ≥80% in microfilaremia or ≥50% in adult worm burden (either species) compared with pre-treatment microfilaremia or non-treated control worm burden, respectively, is considered to be significant. For secondary testing with this dual infection screen, groups of 7 animals each are used. For oral dosing, drugs are dissolved or suspended in hydroxyethylcellulose - Tween 80 and administered by gavage.

[2] = system: Brugia pahangi; assay: Antifilarial dual infection screen in jirds: adult B. pahangi burden; type: in vivo, in Mongolian jirds; conditions: day 56
Text: as §1, §2

[3] = system: adult worms; conditions: background art; cited from earlier work
[4] = system: microfilariae; conditions: background art; cited from earlier work
[5] = Aqueous solubility; conditions: water
[6] = background art; cited from earlier work
[7] = background art; cited from earlier work; remark: listed apart in the source

For `COC(=O)Nc1nc2cc(C(N)c3ccccc3)ccc2[nH]1.Cl.Cl` (racemic) [Example 4, Methyl (±)-[5-[Amino (Phenyl)Methyl]-1H-Benzimidazol-2-yl]Carbamate Dihydrochloride Salt], the “% Microfilarial reduction, A. viteae, Day 4” value ([1]; 3.13 mg/kg/day × 5 days, SC) was 75%, the “% Microfilarial reduction, A. viteae, Day 56” value ([1]; 3.13 mg/kg/day × 5 days, SC) was 50% and the “% Macrofilarial reduction, A. viteae” value ([1]; 3.13 mg/kg/day × 5 days, SC) was 9%. For the same molecule, the “% Microfilarial reduction, A. viteae, Day 4” value ([1]; 6.25 mg/kg/day × 5 days, SC) was 67%, the “% Microfilarial reduction, A. viteae, Day 56” value ([1]; 6.25 mg/kg/day × 5 days, SC) was 67% and the “% Macrofilarial reduction, A. viteae” value ([1]; 6.25 mg/kg/day × 5 days, SC) was 27%. For the same molecule, the “% Microfilarial reduction, A. viteae, Day 4” value ([1]; 12.5 mg/kg/day × 5 days, SC) was 88%, the “% Microfilarial reduction, A. viteae, Day 56” value ([1]; 12.5 mg/kg/day × 5 days, SC) was 50% and the “% Macrofilarial reduction, A. viteae” value ([1]; 12.5 mg/kg/day × 5 days, SC) was 31%. For the same molecule, the “% Microfilarial reduction, A. viteae, Day 4” value ([1]; 100 mg/kg/day × 5 days, oral) was 91%, the “% Microfilarial reduction, A. viteae, Day 56” value ([1]; 100 mg/kg/day × 5 days, oral) was 91% and the “% Macrofilarial reduction, A. viteae” value ([1]; 100 mg/kg/day × 5 days, oral) was 81%. For the same molecule, the “% Microfilarial reduction, A. viteae, Day 4” value ([1]; 200 mg/kg/day × 5 days, oral) was 67%, the “% Microfilarial reduction, A. viteae, Day 56” value ([1]; 200 mg/kg/day × 5 days, oral) was 100% and the “% Macrofilarial reduction, A. viteae” value ([1]; 200 mg/kg/day × 5 days, oral) was 100%. The “% Macrofilarial reduction, B. pahangi” value ([2]; 3.13 mg/kg/day × 5 days, SC) was 15%, the “% Macrofilarial reduction, B. pahangi” value ([2]; 6.25 mg/kg/day × 5 days, SC) was 14% and the “% Macrofilarial reduction, B. pahangi” value ([2]; 12.5 mg/kg/day × 5 days, SC) was 18%. For the same molecule, the “% Macrofilarial reduction, B. pahangi” value ([2]; 100 mg/kg/day × 5 days, oral) was 30% and the “% Macrofilarial reduction, B. pahangi” value ([2]; 200 mg/kg/day × 5 days, oral) was 100%.

In the case of `CCN(CC)C(=O)N1CCN(C)CC1` [Diethylcarbamazine], the “activity against adult worms (macrofilaricidal)” value (“activity against adult worms” for short) [3] is listed as “kill adults of lymphatic filariae in some, but far from all patients” and the activity against microfilariae [4] is listed as “has the ability to destroy microfilariae”.

In the case of `COC(=O)Nc1nc2cc(C(=O)c3ccc(F)cc3)ccc2[nH]1` [Flubendazole, methyl [5-(4-fluorobenzoyl)-1H-benzimidazol-2-yl]carbamate], the solubility [5] is given as 45 µg/mL (≈ 144 µM), the “pain and inflammation on injection” value [6] is given as “cause pain and inflammation on injection” and the absorption [7] is given as “poorly absorbed”.

For `Cc1ccc(C(=O)Nc2ccc(S(=O)(=O)O)c3cc(S(=O)(=O)O)cc(S(=O)(=O)O)c23)cc1NC(=O)c1cccc(NC(=O)Nc2cccc(C(=O)Nc3cc(C(=O)Nc4ccc(S(=O)(=O)O)c5cc(S(=O)(=O)O)cc(S(=O)(=O)O)c45)ccc3C)c2)c1` [Suramin], the “activity against adult worms” value [3] is given as “macrofilaricidal action”.

For `COC(=O)Nc1nc2ccc(C(=O)c3ccccc3)cc2[nH]1` [mebendazole], the “pain and inflammation on injection” value [6] is given as “cause pain and inflammation on injection” and the absorption [7] is given as “poorly absorbed”.

With `COC(=O)Nc1nc2cc(C(N)c3ccccc3)ccc2[nH]1` (racemic) [Example 3, Methyl (±)-[5-[Amino (Phenyl)Methyl]-1H-Benzimidazol-2-yl]Carbamate] the “% Microfilarial reduction, A. viteae, Day 4” value ([1]; 100 mg/kg/day × 5 days, oral) was 83%, the “% Microfilarial reduction, A. viteae, Day 56” value ([1]; 100 mg/kg/day × 5 days, oral) was 83% and the “% Macrofilarial reduction, A. viteae” value ([1]; 100 mg/kg/day × 5 days, oral) was 80%. The “% Macrofilarial reduction, B. pahangi” value ([2]; 1.56 mg/kg/day × 5 days, SC) was 23%, the “% Macrofilarial reduction, B. pahangi” value ([2]; 6.25 mg/kg/day × 5 days, SC) was 0% and the “% Macrofilarial reduction, B. pahangi” value ([2]; 25 mg/kg/day × 5 days, SC) was 75%. The “% Macrofilarial reduction, B. pahangi” value ([2]; 100 mg/kg/day × 5 days, SC) was 100% and the “% Macrofilarial reduction, B. pahangi” value ([2]; 100 mg/kg/day × 5 days, oral) was 52%.

For `CC[C@H](C)[C@H]1O[C@]2(CC[C@@H]1C)C[C@@H]1C[C@@H](C/C=C(\C)[C@@H](O[C@H]3C[C@H](OC)[C@@H](O[C@H]4C[C@H](OC)[C@@H](O)[C@H](C)O4)[C@H](C)O3)[C@@H](C)/C=C/C=C3\CO[C@@H]4[C@H](O)C(C)=C[C@@H](C(=O)O1)[C@]34O)O2` [ivermectin], the “activity against adult worms” value [3] is listed as “without effect on adult worms” and the activity against microfilariae [4] is listed as “outstanding activity against microfilariae”.
